Patent US20250027863A1, “METHOD OF CHARACTERIZATION OF RELEASE OF POORLY SOLUBLE MATERIALS AND UPTAKE IN COMPLEX LIQUIDS” (Zennova LLC, priority 2021, published 2025)

Test: MCRR in vitro release test of ibuprofen solution (flow medium) to external medium
Format: physicochemical

CC(C)Cc1ccc(C(C)C(=O)O)cc1 (centres unmarked) [ibuprofen]
slope of ln (1-fraction released) vs. the exposure time (exposure time in seconds, 15-300 seconds): −0.0102 | percent released (ibuprofen solution in 25 mM phosphate buffer as flow medium, exposure times up to 300 seconds (test time 291.3 minutes), 20° C, triplicate): ~100%
